Data from patent US11045489B2, “Prognostic methods and systems of treatment for acute lymphoblastic leukemia” (MOR RESEARCH APPLICATIONS LTD., priority 2014, dated 2021).

Assays:
NAMPT [1] = test: NAMPT expression by FACS after TPA treatment; type: cell-based; conditions: Peripheral blood cells, 50 ng/ml TPA, 24 hours
Experimental: Studies by several investigators have shown that 12-0-tetradecanoylphorbol-13-acetate (TPA) (Sigma) is an extraordinarily potent tumor promoter and stimulates protein kinase C (PKC). Since NAMPT is over-expressed in several tumors, it was believed that it might be possible to achieve NAMPT stimulation by TPA treatment. To test this hypothesis. Peripheral blood cells were treated with 50 ng/ml TPA for 24 hours and NAMPT expression was measured by FACS using a specific NAMPT antibody.

cellular NAD^+ levels = test: NAD+ assay in TPA stimulated cells; type: cell-based
Experimental: (§1) NAMPT is the rate-limiting enzyme in the NAD^+ biosynthetic pathway. Thus, NAD^+ levels in the stimulated cells were measured using a standard NAD^+ assay (Biovision NADH/NAD Quantification Kit).

SOCS4 = SOCS4 protein levels by Western blotting in transfected Nalm6 cells; type: cell-based; conditions: Nalm6 cell line, over-expression of miR-1290, Western blotting
Experimental: Following transfection of miR-1290 mimic (SEQ ID NO: 4, over-expression), miR-1290 inhibitor (SEQ ID NO: 5, silencing), and miR-scramble (control), into the Nalm6 cell line, the protein levels of SOCS4 were measured using Western blotting (p=0.029; FIG. 9). The values shown in the figure are mean±S.D from 3 experiments.

Phosphorylated STAT5 = test: Phospho-STAT5 levels by FACS in transfected NALM-6 cells; type: cell-based; conditions: NALM-6 cell line
Experimental: Phosphorylated STAT5 (phospho-STAT5) levels were measured by FACS analysis following transfection of miR-1290 mimic (overexpression) into NALM-6 cell line. An increase of 50% in the levels of pSTAT5 protein is evident in the cells expressing high levels of miR-1290 (FIG. 11).

NAMPT 3′-UTR = test: Luciferase reporter assay with NAMPT 3′-UTR; type: cell-based; conditions: P<0.05
Experimental: To confirm that NAMPT is a direct target of miR-451, luciferase reporter vectors were generated that contained the NAMPT 3′-UTR (LightSwitch NAMPT 3′UTR Reporter GoClone). Luciferase reporter assays (LightSwitch Luciferase Assay; SwitchGear) were then performed in the presence and absence of miR-451mimic and inhibitor to determine whether NAMPT was a direct downstream target of miR-451. The relative luciferase activity of the reporter that contained NAMPT 3′-UTR was decreased in 80% when miR-451 mimics were transfected.

NAMPT [2] = test: NAMPT expression by FACS in transfected Nalm-6 cells; type: cell-based; conditions: P<0.05
Experimental: To determine the effects of miR-451 on NAMPT expression, Nalm-6 cells were transfected with miR-451 mimic (SEQ ID NO: 2) and miR-451 inhibitor (GeneCopoeia miArrest miR-451, an inhibitor expression clone) and NAMPT expression was measured by FACS analysis using a specific NAMPT antibody.

Nalm-6 cells [3] = test: Tumor growth of transfected Nalm-6 cells injected s.c. into NOD/SCID mice; type: in vivo
Experimental: To further study the putative tumor-suppressive function of hsa-miR-451 in vivo, 10^7 viable Nalm-6 untransfected cells, transfected in vitro with miR-451, or transfected with scrambled control nucleic acid, were injected s.c. into the right flanks of 6-week-old female NOD/SCID mice. […] On day 26, the median tumor volume in the scrambled control mice and the miR-451 mice were 204.69 mm^3 (SE=63.96) and 23.32 mm^3 (SE=13.12) respectively (P=0.019). At the end of the experiment mice were sacrificed and the tumors were weighted. The median tumor weight in the scrambled control mice and the miR-451 mice were 0.0966 gr (SE=0.040) and 0.0159 gr (SE=0.0009) respectively (P=0.046) (FIG. 4C).

Nalm-6 cells [4] = test: Sensitivity to FK866 (NAD+ levels) of NALM-6 cells transfected with miR-451 mimic or inhibitor; type: cell-based; conditions: 3 hours
Experimental: The sensitivity of NALM-6 cells to the NAMPT inhibitor FK866 was measured in cells following transfection with miR-451 mimic or miR-451 inhibitor (FIG. 8). The sensitivity was measured by levels of NAD^+. […] Thus, miR-451 expression can distinguish between patients that could benefit from treatment with NAMPT inhibitors, such as FK866.

Nalm-6 cells [5] = test: NAD assay in Nalm-6 cells treated with FK866; type: cell-based; conditions: 1 nM, 1, 3 and 6 hours
Experimental: as §1
(§2) Nalm-6 cells were treated for 1, 3, and 6 hours with 1 nM FK866 (Sigma) and NAD^+ formation was measured using NAD assay as described. […] To measure the effect of NAD^+ depletion following FK866 treatment on Nalm-6 cells, apoptosis and viability were measured. Nalm-6 cells were treated for 48 hours with 1 nM FK866 and apoptosis was measured using FACS.

Nalm-6 cells [6] = test: Apoptosis by FACS in Nalm-6 cells treated with FK866; type: cell-based; conditions: 1 nM, 48 hours
Experimental: as §2

CCCCCCCCCCCCCC(=O)O[C@@H]1[C@@H](C)[C@@]2(O)[C@@H](C=C(CO)C[C@]3(O)C(=O)C(C)=C[C@@H]23)[C@H]2C(C)(C)[C@]12OC(C)=O [TPA, 12-0-tetradecanoylphorbol-13-acetate]
increase in NAMPT expression levels (NAMPT [1]): more than 4 folds | cellular NAD^+ levels higher (cellular NAD^+ levels): 2 fold

miR-1290 mimic: miR-1290 mimic (SEQ ID NO: 4, over-expression) transfected into Nalm6 cell line (UGGAUUUUUGGAUCACCUGAUCCAAAAAU; listed as RNA, chemistry not given here)
SOCS4 protein levels (SOCS4): down-regulation | increase in the levels of pSTAT5 protein (Phosphorylated STAT5): 50%

miR-451 mimic: miR-451 mimic (SEQ ID NO: 2) transfected into Nalm-6 cells by electroporation (AAACCGUUACCAUUACUGAGUU; listed as RNA, chemistry not given here; listed as Homo sapiens)
relative luciferase activity of NAMPT 3′-UTR reporter decreased (NAMPT 3′-UTR): 80% | NAMPT protein expression decreased by (NAMPT [2]): 46% | tumor growth (Nalm-6 cells [3]; NOD/SCID mice, Nalm-6/miR-451 cells s.c., versus scrambled miR control): significantly decreased tumor growth | median tumor volume (Nalm-6 cells [3]; day 26, NOD/SCID mice, Nalm-6 cells transfected in vitro, P=0.019 vs scrambled control): 23.32 mm^3 | median tumor weight (Nalm-6 cells [3]; end of the experiment, NOD/SCID mice, P=0.046 vs scrambled control): 0.0159 gr

O=C(/C=C/c1cccnc1)NCCCCC1CCN(C(=O)c2ccccc2)CC1 [FK866]
change in NAD+ production after FK866 treatment compared to Nalm-6/miR-NC (Nalm-6 cells [4]; Nalm-6/miR-451 cells (miR-451 mimic)): less change | change in NAD+ production after FK866 treatment compared to Nalm-6/miR-NC (Nalm-6 cells [4]; Nalm-6/miR-inhibitor cells, p=0.003): more than 5 fold | NAD^+ detection following treatment (Nalm-6 cells [5]): gradual decrease | apoptosis (Nalm-6 cells [6]): induced apoptosis
